In PubChem BioAssay AID328 (DTP/NCI, 2004):
“And” between values parts separate entries of the source, which are not always exact repeats. Equal entries are not always repeated. Inconclusive results and toxic doses are left out.

System: BDF1 mice, P388 leukemia ip, median survival T/C
Test: NCI In Vivo Anticancer Drug Screen. Data for tumor model P388 Leukemia (intraperitoneal) in B6D2F1 (BDF1) mice
Conditions: endpoint: median survival time, higher = longer survival
Outline: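 Each value expresses how treatment altered survival: treated-mouse outcome over vehicle-mouse outcome, both groups bearing the transplanted tumour.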

[1] = dose: 100.0 mg/kg/injection, schedule: Q04DX003 (ip), vehicle: saline with Tween-80
[2] = dose: 100.0 mg/kg/injection, schedule: Q04DX003 (ip), vehicle: Klucel (hydroxypropylcellulose) (HPC)
[3] = dose: 200.0 mg/kg/injection, schedule: Q04DX003 (ip), vehicle: Klucel (hydroxypropylcellulose) (HPC)
[4] = dose: 400.0 mg/kg/injection, schedule: Q04DX003 (ip), vehicle: Klucel (hydroxypropylcellulose) (HPC)
[5] = dose: 100.0 mg/kg/injection, schedule: Q01DX009 (ip), vehicle: saline with Tween-80
[6] = dose: 50.0 mg/kg/injection, schedule: Q01DX009 (ip), vehicle: saline

Q: What does the source list for CN(C)c1ccc(/C=N/NC(N)=S)nc1?
A: T/C (dose: 44.0 mg/kg/injection, schedule: Q04DX003 (ip), vehicle: saline with Tween-80): 159 % of control; T/C (dose: 66.0 mg/kg/injection, schedule: Q04DX003 (ip), vehicle: saline with Tween-80): 150 % of control and 163 % of control; T/C [1]: 177 % of control; T/C (dose: 150.0 mg/kg/injection, schedule: Q04DX003 (ip), vehicle: saline with Tween-80): 213 % of control

Q: Which T/C [2] does the source give for COC(=O)CCC#CC#CCCC(=O)OC here?
A: 109 % of control

Q: And the T/C [3]?
A: 104 % of control

Q: What about the T/C [4] of the same compound?
A: 109 % of control

Q: For CN=C(NC)c1ccc(NC(=O)/C=C\c2ccc(C(=O)Nc3ccc(C(=NC)NC)cc3)cc2)cc1, which T/C (dose: 0.15 mg/kg/injection, schedule: Q01DX009 (ip), vehicle: saline with Tween-80) is on record?
A: 116 % of control

Q: What about the T/C (dose: 0.5 mg/kg/injection, schedule: Q01DX009 (ip), vehicle: saline with Tween-80) of the same compound?
A: 155 % of control

Q: And the T/C (dose: 1.32 mg/kg/injection, schedule: Q04DX003 (ip), vehicle: saline with Tween-80)?
A: 108 % of control

Q: And the T/C (dose: 1.5 mg/kg/injection, schedule: Q01DX009 (ip), vehicle: saline with Tween-80)?
A: 161 % of control

Q: And the T/C (dose: 2.0 mg/kg/injection, schedule: Q04DX003 (ip), vehicle: saline with Tween-80)?
A: 112 % of control

Q: What about the T/C (dose: 4.4 mg/kg/injection, schedule: Q04DX003 (ip), vehicle: saline with Tween-80) of the same compound?
A: 154 % of control

Q: And the T/C (dose: 4.5 mg/kg/injection, schedule: Q04DX003 (ip), vehicle: saline with Tween-80)?
A: 162 % of control

Q: What about the T/C (dose: 6.6 mg/kg/injection, schedule: Q04DX003 (ip), vehicle: saline with Tween-80) of the same compound?
A: 168 % of control

Q: And the T/C (dose: 10.0 mg/kg/injection, schedule: Q04DX003 (ip), vehicle: saline with Tween-80)?
A: 154 % of control

Q: What about the T/C (dose: 12.5 mg/kg/injection, schedule: Q04DX003 (ip), vehicle: saline with Tween-80) of the same compound?
A: 177 % of control

Q: And the T/C (dose: 15.0 mg/kg/injection, schedule: Q04DX003 (ip), vehicle: saline with Tween-80)?
A: 177 % of control

Q: And the T/C (dose: 25.0 mg/kg/injection, schedule: Q04DX003 (ip), vehicle: saline with Tween-80)?
A: 100 % of control

Q: And the T/C (dose: 50.0 mg/kg/injection, schedule: Q04DX003 (ip), vehicle: saline with Tween-80)?
A: 86 % of control

Q: Which T/C (dose: 25.0 mg/kg/injection, schedule: Q01DX009 (ip), vehicle: saline sonified) does the source give for CC1=C/C(=C/c2ccccc2)CC(C)(C)C1 (tested in a mixture with another compound) here?
A: 104 % of control

Q: What about the T/C (dose: 50.0 mg/kg/injection, schedule: Q01DX009 (ip), vehicle: saline sonified) of the same compound?
A: 100 % of control

Q: What about the T/C (dose: 100.0 mg/kg/injection, schedule: Q01DX009 (ip), vehicle: saline sonified) of the same compound?
A: 100 % of control

Q: With CCCCCCCCCCN(CCCCCCCCCC)C1CC(OC2CC(O)(C(C)=O)Cc3c(O)c4c(c(O)c32)C(=O)c2c(OC)cccc2C4=O)OC(C)C1O (stereo unspecified) as the compound, how does the T/C (dose: 37.5 mg/kg/injection, schedule: Q04DX003 (ip), vehicle: other) read?
A: 99 % of control

Q: What about the T/C (dose: 75.0 mg/kg/injection, schedule: Q04DX003 (ip), vehicle: other) of the same compound?
A: 103 % of control

Q: And the T/C (dose: 150.0 mg/kg/injection, schedule: Q04DX003 (ip), vehicle: other)?
A: 94 % of control

Q: What about the T/C (dose: 300.0 mg/kg/injection, schedule: Q04DX003 (ip), vehicle: other) of the same compound?
A: 99 % of control

Q: And the T/C (dose: 400.0 mg/kg/injection, schedule: Q04DX003 (ip), vehicle: other)?
A: 90 % of control

Q: What does the source list for CCCCc1ccc(Sc2cccc3c2C(=O)c2c(Sc4ccc(CCCC)cc4)cccc2C3=O)cc1?
A: T/C [5]: 95 % of control; T/C (dose: 200.0 mg/kg/injection, schedule: Q01DX009 (ip), vehicle: saline with Tween-80): 90 % of control; T/C (dose: 400.0 mg/kg/injection, schedule: Q01DX009 (ip), vehicle: saline with Tween-80): 95 % of control

Q: How did the T/C (dose: 25.0 mg/kg/injection, schedule: Q01DX009 (ip), vehicle: saline) turn out when CCOC(=O)/C=C(\C)OCC was run?
A: 104 % of control

Q: And the T/C (dose: 25.0 mg/kg/injection, schedule: Q04DX003 (ip), vehicle: saline)?
A: 92 % of control and 111 % of control

Q: What about the T/C [6] of the same compound?
A: 101 % of control

Q: What about the T/C (dose: 50.0 mg/kg/injection, schedule: Q04DX003 (ip), vehicle: saline) of the same compound?
A: 94 % of control and 114 % of control

Q: What about the T/C (dose: 100.0 mg/kg/injection, schedule: Q01DX009 (ip), vehicle: saline) of the same compound?
A: 90 % of control

Q: And the T/C (dose: 100.0 mg/kg/injection, schedule: Q04DX003 (ip), vehicle: saline)?
A: 100 % of control

Q: And the T/C (dose: 200.0 mg/kg/injection, schedule: Q01DX009 (ip), vehicle: saline)?
A: 109 % of control

Q: What about the T/C (dose: 200.0 mg/kg/injection, schedule: Q04DX003 (ip), vehicle: saline) of the same compound?
A: 98 % of control and 106 % of control

Q: And the T/C (dose: 400.0 mg/kg/injection, schedule: Q01DX009 (ip), vehicle: saline)?
A: 95 % of control

Q: And the T/C (dose: 400.0 mg/kg/injection, schedule: Q04DX003 (ip), vehicle: saline)?
A: 97 % of control and 104 % of control

Q: For COc1ccc2c(c1C)CCC1(C(=O)O)CC(C)C(O)CC21 (stereo unspecified), which T/C (dose: 50.0 mg/kg/injection, schedule: Q04DX003 (ip), vehicle: saline sonified) is on record?
A: 95 % of control

Q: What about the T/C (dose: 100.0 mg/kg/injection, schedule: Q04DX003 (ip), vehicle: saline sonified) of the same compound?
A: 100 % of control

Q: What about the T/C (dose: 200.0 mg/kg/injection, schedule: Q04DX003 (ip), vehicle: saline sonified) of the same compound?
A: 100 % of control

Q: CN(C)c1ccc([N+](=O)[O-])cn1 was tested. Which T/C (dose: 12.5 mg/kg/injection, schedule: Q01DX009 (ip), vehicle: saline with Tween-80) did it give?
A: 95 % of control

Q: And the T/C (dose: 25.0 mg/kg/injection, schedule: Q01DX009 (ip), vehicle: saline with Tween-80)?
A: 102 % of control

Q: And the T/C (dose: 50.0 mg/kg/injection, schedule: Q01DX009 (ip), vehicle: saline with Tween-80)?
A: 98 % of control

Q: What about the T/C [5] of the same compound?
A: 98 % of control

Q: For CC(=O)Oc1cc(OC(C)=O)c2c(ccc3ccccc32)c1, which T/C [1] is on record?
A: 93 % of control

Q: And the T/C (dose: 200.0 mg/kg/injection, schedule: Q04DX003 (ip), vehicle: saline with Tween-80)?
A: 97 % of control

Q: What about the T/C (dose: 400.0 mg/kg/injection, schedule: Q04DX003 (ip), vehicle: saline with Tween-80) of the same compound?
A: 93 % of control

Q: Cc1ccc(NS(=O)(=O)c2ccc(F)cc2)cc1C was tested. Which T/C [2] did it give?
A: 109 % of control

Q: And the T/C [3]?
A: 109 % of control

Q: And the T/C [4]?
A: 104 % of control

Q: NC(=O)c1c(Br)n(C2OC(CO)C(O)C2O)c2ncnc(N)c12 (stereo unspecified) was tested. Which T/C [6] did it give?
A: 95 % of control

Q: With CCCCCCCCCCCC[N+]1(CCCCCCCCCCCC)CCCC(C)C1 (stereo unspecified) as the compound, how does the T/C (dose: 0.37 mg/kg/injection, schedule: Q01DX009 (ip), vehicle: Klucel (hydroxypropylcellulose) (HPC)) read?
A: 108 % of control

Q: What does the source list for CS(=O)(=O)OCCCNCCCOS(C)(=O)=O?
A: T/C (dose: 10.0 mg/kg/injection, schedule: Q01DX009 (ip), vehicle: saline): 228 % of control; T/C (dose: 10.0 mg/kg/injection, schedule: Q01DX010 (ip), vehicle: saline): 255 % of control; T/C (dose: 12.0 mg/kg/injection, schedule: Q04DX003 (ip), vehicle: saline): 186 % of control; T/C (dose: 19.0 mg/kg/injection, schedule: Q04DX003 (ip), vehicle: saline): 204 % of control; T/C (dose: 20.0 mg/kg/injection, schedule: Q01DX009 (ip), vehicle: saline): 255 % of control; T/C (dose: 20.0 mg/kg/injection, schedule: Q01DX010 (ip), vehicle: saline): 300 % of control; T/C (dose: 29.0 mg/kg/injection, schedule: Q04DX003 (ip), vehicle: saline): 209 % of control; T/C (dose: 40.0 mg/kg/injection, schedule: Q01DX009 (ip), vehicle: saline): 282 % of control; T/C (dose: 40.0 mg/kg/injection, schedule: Q01DX010 (ip), vehicle: saline): 300 % of control; T/C (dose: 45.0 mg/kg/injection, schedule: Q04DX003 (ip), vehicle: saline): 240 % of control; T/C (dose: 66.0 mg/kg/injection, schedule: Q04DX003 (ip), vehicle: saline): 245 % of control; T/C (dose: 80.0 mg/kg/injection, schedule: Q01DX010 (ip), vehicle: saline): 94 % of control; T/C (dose: 150.0 mg/kg/injection, schedule: Q04DX003 (ip), vehicle: saline): 300 % of control

Q: With CCCCOC(=O)c1ccc(OCCOc2ccc(C(C)(C)CC(C)(C)C)cc2)c(NC(=O)CC(=O)c2cccc(N)c2)c1 as the compound, how does the T/C (dose: 6.25 mg/kg/injection, schedule: Q04DX003 (ip), vehicle: saline sonified) read?
A: 100 % of control

Q: What about the T/C (dose: 12.5 mg/kg/injection, schedule: Q04DX003 (ip), vehicle: saline sonified) of the same compound?
A: 91 % of control

Q: With BrC1C2CCC(CC2)C1Br (stereo unspecified) as the compound, how does the T/C (dose: 100.0 mg/kg/injection, schedule: Q01DX009 (ip), vehicle: Klucel (hydroxypropylcellulose) (HPC)) read?
A: 100 % of control

Q: What about the T/C [2] of the same compound?
A: 95 % of control

Q: What about the T/C (dose: 200.0 mg/kg/injection, schedule: Q01DX009 (ip), vehicle: Klucel (hydroxypropylcellulose) (HPC)) of the same compound?
A: 104 % of control

Q: And the T/C [3]?
A: 95 % of control

Q: And the T/C [4]?
A: 91 % of control
